Source: PubChem BioAssay AID248 (DTP/NCI, 2004)
Values joined by “and” are separate entries in the source; they are usually repeats but may differ in a detail not shown here. Equal values may be shown once. Inconclusive results and toxic doses are left out. Rule as the data show it: active = T/C of 150% or more; inactive = T/C below 125%.

Tested on: L1210 leukemia ip in BDF1 mice, survival T/C
Test: NCI In Vivo Anticancer Drug Screen. Data for tumor model L1210 Leukemia (intraperitoneal) in B6D2F1 (BDF1) mice
Conditions: higher = longer survival
Outline: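 Tumor was transplanted into mice, which were then dosed with test compound or vehicle alone. Survival was recorded for each group, and the treated figure was expressed relative to the control figure.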

[1] = endpoint: mean survival time, dose: 75.0 mg/kg/injection, schedule: Q01DX001 (ip), vehicle: carboxymethylcellulose (CMC)
[2] = endpoint: mean survival time, dose: 150.0 mg/kg/injection, schedule: Q01DX001 (ip), vehicle: carboxymethylcellulose (CMC)
[3] = endpoint: mean survival time, dose: 100.0 mg/kg/injection, schedule: Q01DX009 (ip), vehicle: Klucel (hydroxypropylcellulose) (HPC)
[4] = endpoint: mean survival time, dose: 200.0 mg/kg/injection, schedule: Q01DX009 (ip), vehicle: Klucel (hydroxypropylcellulose) (HPC)

Measured: T/C

CN(N=O)C(=O)N[C@@H](C=O)[C@@H](O)[C@H](O)[C@H](O)CO
inactive: endpoint: mean survival time, dose: 0.5 mg/kg/injection, schedule: Q03HX040 (ip), vehicle: other 94 % of control | endpoint: mean survival time, dose: 1.0 mg/kg/injection, schedule: Q03HX040 (ip), vehicle: other 98 % of control | endpoint: mean survival time, dose: 2.0 mg/kg/injection, schedule: Q03HX040 (ip), vehicle: other 92 % of control | endpoint: mean survival time, dose: 2.3 mg/kg/injection, schedule: Q01DX009 (ip), vehicle: other 96 % of control and 101 % of control | endpoint: mean survival time, dose: 4.0 mg/kg/injection, schedule: Q03HX040 (ip), vehicle: other 104 % of control | endpoint: mean survival time, dose: 4.5 mg/kg/injection, schedule: Q01DX009 (ip), vehicle: other 92 % of control and 105 % of control | endpoint: mean survival time, dose: 8.0 mg/kg/injection, schedule: Q03HX040 (ip), vehicle: other 112 % of control | endpoint: mean survival time, dose: 8.0 mg/kg/injection, schedule: Q## X009 (ip), vehicle: other 98 % of control | endpoint: mean survival time, dose: 9.0 mg/kg/injection, schedule: Q01DX009 (ip), vehicle: other 99 % of control and 111 % of control | endpoint: mean survival time, dose: 12.5 mg/kg/injection, schedule: Q01DX009 (ip), vehicle: saline 101 % of control and 107 % of control | endpoint: mean survival time, dose: 12.5 mg/kg/injection, schedule: Q01DX009 (ip), vehicle: water 104 % of control | endpoint: mean survival time, dose: 16.0 mg/kg/injection, schedule: Q01DX017 (ip), vehicle: other 107 % of control | endpoint: mean survival time, dose: 16.0 mg/kg/injection, schedule: Q03HX040 (ip), vehicle: other 110 % of control | endpoint: mean survival time, dose: 16.0 mg/kg/injection, schedule: Q## X009 (ip), vehicle: other 94 % of control | endpoint: mean survival time, dose: 17.0 mg/kg/injection, schedule: Q04DX002 (ip), vehicle: other 97 % of control and 113 % of control | endpoint: mean survival time, dose: 24.5 mg/kg/injection, schedule: Q01DX Z (ip), vehicle: water 112 % of control | endpoint: mean survival time, dose: 25.0 mg/kg/injection, schedule: Q01DX009 (ip), vehicle: other 120 % of control | endpoint: mean survival time, dose: 25.0 mg/kg/injection, schedule: Q01DX Z (ip), vehicle: water 115 % of control | endpoint: mean survival time, dose: 25.0 mg/kg/injection, schedule: Q04DX003 (ip), vehicle: saline 96 % of control and 100 % of control | endpoint: mean survival time, dose: 32.0 mg/kg/injection, schedule: Q01DX001 (ip), vehicle: other 100 % of control | endpoint: mean survival time, dose: 32.0 mg/kg/injection, schedule: Q02DX009 (ip), vehicle: other 112 % of control | endpoint: mean survival time, dose: 32.0 mg/kg/injection, schedule: Q04DX005 (ip), vehicle: other 101 % of control | endpoint: mean survival time, dose: 32.0 mg/kg/injection, schedule: Q08DX003 (ip), vehicle: other 101 % of control | endpoint: mean survival time, dose: 32.0 mg/kg/injection, schedule: Q## X009 (ip), vehicle: other 112 % of control | endpoint: mean survival time, dose: 49.5 mg/kg/injection, schedule: Q01DX Z (ip), vehicle: water 120 % of control | endpoint: mean survival time, dose: 50.0 mg/kg/injection, schedule: Q01DX009 (ip), vehicle: citric acid 110 % of control | endpoint: mean survival time, dose: 50.0 mg/kg/injection, schedule: Q04DX002 (ip), vehicle: saline 104 % of control | endpoint: mean survival time, dose: 50.0 mg/kg/injection, schedule: Q04DX003 (ip), vehicle: saline 105 % of control and 110 % of control | endpoint: mean survival time, dose: 64.0 mg/kg/injection, schedule: Q01DX001 (ip), vehicle: other 105 % of control | endpoint: mean survival time, dose: 64.0 mg/kg/injection, schedule: Q04DX005 (ip), vehicle: other 111 % of control | endpoint: mean survival time, dose: 64.0 mg/kg/injection, schedule: Q08DX003 (ip), vehicle: other 104 % of control | endpoint: mean survival time, dose: 67.0 mg/kg/injection, schedule: Q01DX009 (ip), vehicle: citric acid 116 % of control | endpoint: mean survival time, dose: 100.0 mg/kg/injection, schedule: Q01DX001 (ip), vehicle: other 103 % of control | endpoint: mean survival time, dose: 100.0 mg/kg/injection, schedule: Q01DX009 (ip), vehicle: citric acid 123 % of control and 124 % of control and 89 % of control | endpoint: mean survival time, dose: 100.0 mg/kg/injection, schedule: Q01DX009 (ip), vehicle: other 118 % of control | endpoint: mean survival time, dose: 100.0 mg/kg/injection, schedule: Q01DX Z (ip), vehicle: water 117 % of control | endpoint: mean survival time, dose: 100.0 mg/kg/injection, schedule: Q04DX002 (ip), vehicle: saline 120 % of control | endpoint: mean survival time, dose: 100.0 mg/kg/injection, schedule: Q04DX003 (ip), vehicle: saline 97 % of control | endpoint: mean survival time, dose: 128.0 mg/kg/injection, schedule: Q01DX001 (ip), vehicle: other 114 % of control | endpoint: mean survival time, dose: 128.0 mg/kg/injection, schedule: Q02DX009 (ip), vehicle: other 117 % of control | endpoint: mean survival time, dose: 128.0 mg/kg/injection, schedule: Q04DX005 (ip), vehicle: other 118 % of control | endpoint: mean survival time, dose: 128.0 mg/kg/injection, schedule: Q08DX003 (ip), vehicle: other 111 % of control | endpoint: mean survival time, dose: 138.0 mg/kg/injection, schedule: Q01DX009 (ip), vehicle: other 92 % of control | endpoint: mean survival time, dose: 150.0 mg/kg/injection, schedule: Q01DX009 (ip), vehicle: citric acid 90 % of control | endpoint: mean survival time, dose: 200.0 mg/kg/injection, schedule: Q01DX001 (ip), vehicle: other 122 % of control | endpoint: mean survival time, dose: 200.0 mg/kg/injection, schedule: Q04DX003 (ip), vehicle: saline 96 % of control and 97 % of control | endpoint: mean survival time, dose: 250.0 mg/kg/injection, schedule: Q01DX001 (ip), vehicle: citric acid 116 % of control | endpoint: mean survival time, dose: 256.0 mg/kg/injection, schedule: Q01DX001 (ip), vehicle: other 110 % of control | endpoint: mean survival time, dose: 256.0 mg/kg/injection, schedule: Q04DX005 (ip), vehicle: other 114 % of control | endpoint: mean survival time, dose: 256.0 mg/kg/injection, schedule: Q08DX003 (ip), vehicle: other 117 % of control | endpoint: mean survival time, dose: 300.0 mg/kg/injection, schedule: Q01DX001 (ip), vehicle: citric acid 118 % of control and 122 % of control | endpoint: mean survival time, dose: 300.0 mg/kg/injection, schedule: Q04DX002 (ip), vehicle: acid diluted with saline 93 % of control | endpoint: mean survival time, dose: 350.0 mg/kg/injection, schedule: Q01DX001 (ip), vehicle: citric acid 112 % of control | endpoint: mean survival time, dose: 400.0 mg/kg/injection, schedule: Q01DX001 (ip), vehicle: citric acid 111 % of control | endpoint: mean survival time, dose: 400.0 mg/kg/injection, schedule: Q01DX009 (ip), vehicle: saline 108 % of control | endpoint: mean survival time, dose: 400.0 mg/kg/injection, schedule: Q04DX002 (ip), vehicle: saline 93 % of control and 123 % of control | endpoint: mean survival time, dose: 518.0 mg/kg/injection, schedule: Q04DX002 (ip), vehicle: other 95 % of control | endpoint: median survival time, dose: 14.0 mg/kg/injection, schedule: Q01DX009 (ip), vehicle: Klucel (hydroxypropylcellulose) (HPC) 111 % of control | endpoint: median survival time, dose: 17.0 mg/kg/injection, schedule: Q01DX009 (ip), vehicle: water 108 % of control and 114 % of control | endpoint: median survival time, dose: 26.0 mg/kg/injection, schedule: Q01DX009 (ip), vehicle: water 104 % of control and 117 % of control | endpoint: median survival time, dose: 39.0 mg/kg/injection, schedule: Q01DX009 (ip), vehicle: Klucel (hydroxypropylcellulose) (HPC) 116 % of control | endpoint: median survival time, dose: 39.0 mg/kg/injection, schedule: Q01DX009 (ip), vehicle: water 111 % of control | endpoint: median survival time, dose: 87.0 mg/kg/injection, schedule: Q01DX009 (ip), vehicle: water 114 % of control | endpoint: median survival time, dose: 130.0 mg/kg/injection, schedule: Q01DX009 (ip), vehicle: water 86 % of control

C/C=C/CCC(C)=O
inactive: endpoint: mean survival time, dose: 100.0 mg/kg/injection, schedule: Q04DX003 (ip), vehicle: saline with Tween-80 99 % of control | endpoint: mean survival time, dose: 200.0 mg/kg/injection, schedule: Q04DX003 (ip), vehicle: saline with Tween-80 100 % of control | endpoint: mean survival time, dose: 400.0 mg/kg/injection, schedule: Q04DX003 (ip), vehicle: saline with Tween-80 108 % of control

COC1(C)C(=O)Oc2c1c1ccccc1c1ccccc21 (stereo not given)
inactive: [1] 94 % of control | [2] 89 % of control

O=C1NC(=O)C(c2ccccc2)(C2CCCC2)N1 (stereo not given)
inactive: endpoint: mean survival time, dose: 50.0 mg/kg/injection, schedule: Q01DX009 (ip), vehicle: Klucel (hydroxypropylcellulose) (HPC) 93 % of control | [3] 98 % of control | [4] 96 % of control

Cc1cccc(NC(=O)Oc2ccc3c(C)cc(=O)oc3c2)c1
inactive: [3] 110 % of control | endpoint: mean survival time, dose: 100.0 mg/kg/injection, schedule: Q04DX002 (ip), vehicle: Klucel (hydroxypropylcellulose) (HPC) 93 % of control | [4] 98 % of control | endpoint: mean survival time, dose: 200.0 mg/kg/injection, schedule: Q04DX002 (ip), vehicle: Klucel (hydroxypropylcellulose) (HPC) 96 % of control | endpoint: mean survival time, dose: 400.0 mg/kg/injection, schedule: Q01DX009 (ip), vehicle: Klucel (hydroxypropylcellulose) (HPC) 94 % of control | endpoint: mean survival time, dose: 400.0 mg/kg/injection, schedule: Q04DX002 (ip), vehicle: Klucel (hydroxypropylcellulose) (HPC) 93 % of control

NNC(=S)Nc1cccc2ccccc12
inactive: [1] 93 % of control | [2] 93 % of control

O=C(NCCCl)Nc1ccc(Cl)c(Cl)c1
inactive: endpoint: mean survival time, dose: 100.0 mg/kg/injection, schedule: Q01DX001 (ip), vehicle: carboxymethylcellulose (CMC) 101 % of control | [3] 94 % of control | endpoint: mean survival time, dose: 200.0 mg/kg/injection, schedule: Q01DX001 (ip), vehicle: carboxymethylcellulose (CMC) 95 % of control | [4] 98 % of control | endpoint: mean survival time, dose: 400.0 mg/kg/injection, schedule: Q01DX001 (ip), vehicle: carboxymethylcellulose (CMC) 106 % of control
